Experimental data: patent EP2242752B1, “[…] IMIDAZOLES AS HEPATITIS C VIRUS INHIBITORS” (Bristol-Myers Squibb Company, priority 2008, dated 2009)

Each compound was assayed on HCV 1b genotype (assay: HCV Replicon assay (HCV 16-377-neo replicon cells)). Details: Hepatitis C virus; HCV 1b genotype replicon cells; read-out: EC50 ranges against HCV 1b.
Type: cell-based
Description: An HCV Replion assay was utilized in the present disclosure, and was prepared, conducted and validated as described in commonly owned PCT/US2006/022197 and in O'Boyle et. al. Antimicrob Agents Chemother. 2005 Apr;49(4): 1346-53.
HCV 16-377-neo replicon cells were used to test the currently described compound series as well as cells resistant to compound A due to a Y2065H mutation in NS5A (described in application PCT/US2006/022197). The compounds tested were determined to have more than 10-fold less inhibitory activity on cells resistant to compound A than wild-type cells indicating a related mechanism of action between the two compound series. Thus, the compounds of the present disclosure can be effective to inhibit the function of the HCV NS5A protein and are understood to be as effective in combinations as previously described in application PCT/US2006/022197 and commonly owned WO/O4014852. Further, the compounds of the present disclosure can be effective against the HCV 1b genotype. It should also be understood that the compounds of the present disclosure can inhibit multiple genotypes of HCV. […] In one embodiment compounds of the present disclosure are active against the 1a, 1b, 2a, 2b, 3a, 4a, and 5a genotypes.

SMILES | EC50 [nM]
COC(=O)N[C@@H](C(=O)N1[C@@H]2C[C@@H]2C[C@H]1c1nc(-c2ccc(-c3ccc(-c4c[nH]c([C@@H]5C[C@H]6C[C@H]6N5C(=O)[C@H](NC(=O)OC)C(C)C)n4)cc3)cc2)c[nH]1)C(C)C [Example M136, methyl ((1R)-1-(((1R,3S,5R)-3-(4-(4'-(2-((1R,3S,5R)-2-((2R)-2-((methoxycarbonyl)amino)-3-methylbutanoyl)-2-azabicyclo[3.1.0]hex-3-yl)-1H-imidazol-4-yl)-4-biphenylyl)-1H-imidazol-2-yl)-2-azabicyclo[3.1.0]hex-2-yl)carbonyl)-2-methylpropyl)carbamate] | 1 to 99
COC(=O)N[C@H](C(=O)N1[C@@H]2C[C@@H]2C[C@H]1c1ncc(-c2ccc(-c3ccc(-c4cnc([C@@H]5C[C@H]6C[C@H]6N5C(=O)CCCC[C@@H]5SC[C@@H]6NC(=O)N[C@@H]65)[nH]4)cc3)cc2)[nH]1)C(C)C [Example M139] | 0.001 to 0.999
CC(=O)N[C@H](C(=O)N1[C@@H]2C[C@@H]2C[C@H]1c1ncc(-c2ccc(-c3ccc(-c4cnc([C@@H]5C[C@H]6C[C@H]6N5C(=O)[C@@H](NC(C)=O)C(C)C)[nH]4)cc3)cc2)[nH]1)C(C)C [Example M140, N((1S)-1-(((1R,3S,SR)-3-(4-(4'-(2-((1R,3S,SR)-2-((2S)-2-acetamido-3-methylbutanoyl)-2-azabicyclo[3.1.0]hex-3-yl)-1H-imidazol-4-yl)-4-biphenylyl)-1H imidazol-2-yl)-2-azabicyclo[3.1.0]hex-2-yl)carbonyl)-2-methylpropyl)acetamide] | 0.001 to 0.999
CC(C)[C@H](N)C(=O)N1[C@@H]2C[C@@H]2C[C@H]1c1nc(-c2ccc(-c3ccc(-c4cnc([C@@H]5C[C@H]6C[C@H]6N5C(=O)[C@@H](N)C(C)C)[nH]4)cc3)cc2)c[nH]1 [Example M140a-i, (2S)-1-((1R,3S,5R)-3-(4-(4'-(2-((1R,3S,5R)-2-((2S)-2-amino-3-methylbutanoyl)-2-azabicyclo[3.1.0]hex-3-yl)-1H-imidazol-5-yl)-4-biphenylyl)-1H-imidazol-2-yl)-2-azabicyclo[3.1.0]hex-2-yl)-3-methyl-1-oxo-2-butanamine] | 1 to 99
CC(C)[C@H](N)C(=O)N1[C@@H]2C[C@@H]2C[C@H]1c1ncc(-c2ccc(-c3ccc(-c4cnc([C@@H]5C[C@H]6C[C@H]6N5C(=O)[C@@H](N)C(C)C)[nH]4)cc3)cc2)[nH]1 [Example M140a-ii] | 1 to 99
CC(C)[C@H](NC(=O)C1CC1)C(=O)N1[C@@H]2C[C@@H]2C[C@H]1c1ncc(-c2ccc(-c3ccc(-c4cnc([C@@H]5C[C@H]6C[C@H]6N5C(=O)[C@@H](NC(=O)C5CC5)C(C)C)[nH]4)cc3)cc2)[nH]1 [Example M141, N((1S)-1-(((1R,3S,SR)-3-(4-(4'-(2-((1R,3S,SR)-2-((2S)-2-((cyclopropylcarbonyl)amino)-3-methylbutanoyl)-2-azabicyclo[3.1.0]hex-3-yl)-1H imidazol-4-y/)-4-biphenyly/)-1H-imidazol-2-yl)-2-azabicyclo[3.1. 0]hex-2-yl)carbonyl)-2-methylpropyl)cyclopropanecarbamate] | 1 to 99
CC(C)[C@@H](NC(=O)OC(C)(C)C)C(=O)N1[C@@H]2C[C@@H]2C[C@H]1c1nc(-c2ccc(-c3ccc(-c4c[nH]c([C@@H]5C[C@H]6C[C@H]6N5C(=O)[C@H](NC(=O)OC(C)(C)C)C(C)C)n4)cc3)cc2)c[nH]1 [Example M142, tert-butyl ((1R)-1-(((1R,3S,5R)-3-(4-(4'-(2-((1R,3S,5R)-2-((2R)-2-((tert-butoxycarbonyl)amino)-3-methylbutanoyl)-2-azabicyclo[3.1.0]hex-3-yl)-1H-imidazol-4-yl)-4-biphenylyl)-1H-imidazol-2-yl)-2-azabic yclo[3.1.0]hex-2-yl)carbonyl)-2-methylpropyl)carbamate] | 1 to 99
CC(C)[C@H](Nc1ncccn1)C(=O)N1[C@@H]2C[C@@H]2C[C@H]1c1ncc(-c2ccc(-c3ccc(-c4cnc([C@@H]5C[C@H]6C[C@H]6N5C(=O)[C@@H](Nc5ncccn5)C(C)C)[nH]4)cc3)cc2)[nH]1 [Example M144, N,N'-(4,4'-biphenyldiylbis(1H-imidazole-4,2-diyl(1R,3S,5R)-2-azabicyclo[3.1.0]hexane-3,2-diyl((2S)-3-methyl-1-oxo-1, -butanediyl)))di(2-pyrimidinamine)] | 0.001 to 0.999
COC(=O)N[C@H](C(=O)N1CC2(CC2)C[C@H]1c1nc(-c2ccc(-c3ccc(-c4c[nH]c([C@@H]5CC6(CC6)CN5C(=O)[C@@H](NC(=O)OC)C(C)C)n4)cc3)cc2)c[nH]1)C(C)C [Example M145, methyl ((1S)-1-(((6S)-6-(4-(4'-(2-((6S)-5-((2S)-2-((methoxycarbonyl)amino)-3-methylbutanoyl)-5-azaspiro[2.4]hept-6-yl)-1H-imidazol-4-yl)-4-biphenylyl)-1H-imidazol-2-yl)-5-azaspiro[2.4]hept-5-yl)carbonyl)-2-methylpropyl)carbamate] | 0.001 to 0.999
COC(=O)NCC(=O)N1CC2(CC2)C[C@H]1c1nc(-c2ccc(-c3ccc(-c4c[nH]c([C@@H]5CC6(CC6)CN5C(=O)CNC(=O)OC)n4)cc3)cc2)c[nH]1 [Example M146, methyl (2-((6S)-6-(4-(4'-(2-((6S)-5-(((methoxycarbonyl)amino)acetyl)-5-azaspiro[2.4]hept-6-yl)-1H-imidazol-4-yl)-4-biphenylyl)-1H-imidazol-2-yl)-5-azaspiro[2.4]hept-5-yl)-2-oxoethyl)carbamate] | 0.001 to 0.999
COC(=O)N[C@@H](C)C(=O)N1CC2(CC2)C[C@H]1c1nc(-c2ccc(-c3ccc(-c4c[nH]c([C@@H]5CC6(CC6)CN5C(=O)[C@H](C)NC(=O)OC)n4)cc3)cc2)c[nH]1 [Example M147, methyl ((1S)-2-((6S)-6-(4-(4'-(2-((6S)-5-(N-(methoxycarbonyl)-L-alanyl)-5-azaspiro[2.4]hept-6-yl)-1H-imidazol-4-yl)-4-biphenylyl)-1H-imidazol-2-yl)-5-azaspiro[2.4]hept-5-yl)-1-methyl-2-oxoethyl)carbam ate] | 0.001 to 0.999
CC[C@H](NC(=O)OC)C(=O)N1CC2(CC2)C[C@H]1c1nc(-c2ccc(-c3ccc(-c4c[nH]c([C@@H]5CC6(CC6)CN5C(=O)[C@H](CC)NC(=O)OC)n4)cc3)cc2)c[nH]1 [Example M148, dimethyl (4,4'-biphenyldiylbis(1H-imidazole-4,2-diyl(6S)-5-azaspiro[2.4]heptane-6,5-diyl((2S)-1-oxo-1,2-butanediyl)))biscarbamate] | 0.001 to 0.999
COC(=O)N[C@@H](C(=O)N1CC2(CC2)C[C@H]1c1nc(-c2ccc(-c3ccc(-c4c[nH]c([C@@H]5CC6(CC6)CN5C(=O)[C@H](NC(=O)OC)C(C)C)n4)cc3)cc2)c[nH]1)C(C)C [Example M149, methyl ((1R)-1-(((6S)-6-(4-(4'-(2-((6S)-5-((2R)-2-((methoxycarbonyl)amino)-3-methylbutanoyl)-5-azaspiro[2.4]hept-6-yl)-1H-imidazol-4-yl)-4-biphenylyl)-1H-imidazol-2-yl)-5-azaspiro[2.4]hept-5-yl)carbonyl)-2-methylpropyl)carbamate] | 1 to 99
COC(=O)N[C@@H](C(=O)N1CC2(CC2)C[C@H]1c1nc(-c2ccc(-c3ccc(-c4c[nH]c([C@@H]5CC6(CC6)CN5C(=O)[C@H](NC(=O)OC)c5ccccc5)n4)cc3)cc2)c[nH]1)c1ccccc1 [Example M150, dimethyl (4,4'-biphenyldiylbis(1H-imidazole-4,2-diyl(6S)-5-azaspiro[2.4]heptane-6,5-diyl((1R)-2-oxo-1-phenyl-2,1-ethanediyl)))biscarbamate] | 0.001 to 0.999
COC(=O)N[C@H](C(=O)N1[C@@H](C)CC[C@H]1c1nc(-c2ccc(-c3ccc(-c4c[nH]c([C@@H]5CC[C@H](C)N5C(=O)[C@@H](NC(=O)OC)C(C)C)n4)cc3)cc2)c[nH]1)C(C)C [Example M151, methyl ((1S)-1-(((2S,5S)-2-(4-(4'-(2-((2S,5S)-1-((2S)-2-((methoxycarbonyl)amino)-3-methylbutanoyl)-5-methyl-2-pyrrolidinyl)-1H-imidazol-4-yl)-4-biphenylyl)-1H-imidazol-2-yl)-5-methyl-1-pyrrolidinyl)carbonyl)-2-methylpropyl)carbamate] | 0.001 to 0.999
COC(=O)N[C@@H](C(=O)N1[C@@H](C)CC[C@H]1c1nc(-c2ccc(-c3ccc(-c4c[nH]c([C@@H]5CC[C@H](C)N5C(=O)[C@H](NC(=O)OC)c5ccccc5)n4)cc3)cc2)c[nH]1)c1ccccc1 [Example M153, dimethyl (4,4'-biphenyldiylbis(1H-imidazole-4,2-diyl((2S,5S)-5-methyl-2,1-pyrrolidinediyl)((1R)-2-oxo-1-phenyl-2,1-ethanediyl)))biscarbamate] | 0.001 to 0.999
CC[C@H](NC(=O)OC)C(=O)N1[C@@H](C)CC[C@H]1c1nc(-c2ccc(-c3ccc(-c4c[nH]c([C@@H]5CC[C@H](C)N5C(=O)[C@H](CC)NC(=O)OC)n4)cc3)cc2)c[nH]1 [Example M154, dimethyl (4,4'-biphenyldiylbis(1H-imidazole-4,2-diyl((2S,5S)-5-methyl-2,1-pyrrolidinediyl)((2S)-1-oxo-1,2-butanediyl)))biscarbamate] | 0.001 to 0.999
COC(=O)NCC(=O)N1[C@@H](C)CC[C@H]1c1nc(-c2ccc(-c3ccc(-c4c[nH]c([C@@H]5CC[C@H](C)N5C(=O)CNC(=O)OC)n4)cc3)cc2)c[nH]1 [Example M155, methyl (2-((2S,5S)-2-(4-(4'-(2-((2S,5S)-1-(((methoxycarbonyl)amino)acetyl)-5-methyl-2-pyrrolidinyl)-1H-imidazol-4-yl)-4-biphenylyl)-1H-imidazol-2-yl)-5-methyl-1-pyrrolidinyl)-2-oxoethyl)carbamate] | 1 to 99
